Where two headings read alike, the source gives them in different places.
Legend:
DU-145 = assay: SRB antiproliferative assay DU-145; assay type: cell-based; conditions: Homo sapiens; DU-145 (Prostate), 5% FCS/5 day incubation; read-out: Test Compound IC50
Description: (§1) The cells were passaged using Trypsin (Gibco).

[1] = system: NIH 3T3 mouse fibroblast cells; assay: Mitogenic assay (mitogen-induced cell proliferation); assay type: cell-based; conditions: for IC50: mitogen-induced cell proliferation
MMRU = assay: SRB antiproliferative assay MMRU; assay type: cell-based; conditions: Homo sapiens
Description: as §1

HCT-15 = assay: SRB antiproliferative assay HCT-15; assay type: cell-based; conditions: Homo sapiens; HCT-15 (Colon), 5% FCS/5 day incubation; read-out: Test Compound IC50
Description: as §1

HT29 = assay: SRB antiproliferative assay HT29; assay type: cell-based; conditions: Homo sapiens
Description: as §1

L929 = assay: SRB assay normal cells L929; assay type: cell-based; conditions: L929 (Normal mouse), 5% FCS/5 day incubation; read-out: Test Compound IC50
Description: as §1

CaSki = assay: SRB antiproliferative assay CaSki; assay type: cell-based; conditions: Homo sapiens, Ca-Ski; CaSki (Cervical), 5% FCS/5 day incubation; read-out: Test Compound IC50
Description: as §1

SK-OV-3 = assay: SRB antiproliferative assay SK-OV-3; assay type: cell-based; conditions: Homo sapiens; SK-OV-3 (Ovary), 5% FCS/5 day incubation; read-out: Test Compound IC50
Description: as §1

HeLa = assay: SRB antiproliferative assay HeLa; assay type: cell-based; conditions: Homo sapiens; HeLa (Cervical), 5% FCS/5 day incubation; read-out: Test Compound IC50
Description: as §1

HEPG2 = assay: SRB antiproliferative assay HEPG2; assay type: cell-based; conditions: Homo sapiens
Description: as §1

SK-MEL-28 = assay: SRB antiproliferative assay SK-MEL-28; assay type: cell-based; conditions: Homo sapiens; SK-MEL-28 (Melanoma), 5% FCS/5 day incubation; read-out: Test Compound IC50
Description: as §1

GM = assay: SRB assay normal cells GM; assay type: cell-based; conditions: GM (Normal human), 5% FCS/5 day incubation; read-out: Test Compound IC50
Description: as §1

A549 = assay: SRB antiproliferative assay A549; assay type: cell-based; conditions: Homo sapiens
Description: as §1

HTB174 = assay: SRB antiproliferative assay HTB174; assay type: cell-based; conditions: HTB174 (Lung), 5% FCS/5 day incubation; read-out: Test Compound IC50
Description: as §1

MCF7 = assay: SRB antiproliferative assay MCF7; assay type: cell-based; conditions: Homo sapiens
Description: as §1

HUVEC = assay: SRB assay normal cells HUVEC; assay type: cell-based; conditions: HUVEC (Normal human), 5% FCS/5 day incubation; read-out: Test Compound IC50
Description: as §1

MDA-MB-23 = assay: SRB antiproliferative assay MDA-MB-23; assay type: cell-based
Description: as §1

3T3 = assay: SRB assay normal cells 3T3; assay type: cell-based; conditions: NIH3T3; 3T3 (Normal mouse), 5% FCS/5 day incubation; read-out: Test Compound IC50
Description: as §1

U118MG = assay: SRB antiproliferative assay U118MG; assay type: cell-based; conditions: Homo sapiens, U-118-MG
Description: as §1

ACHN = assay: SRB antiproliferative assay ACHN; assay type: cell-based; conditions: Homo sapiens; ACHN (Renal), 5% FCS/5 day incubation; read-out: Test Compound IC50
Description: as §1

[2] = target: T1, Ca2+-activated potassium channel (Gardos channel) of erythrocytes (Homo sapiens, UniProt O15554); assay: Gardos channel assay; assay type: cell-based; conditions: for inhibition at 10 µM: 10 μM compound
T1 construct: endogenous in cells; host or cells: erythrocytes

[3] = MMRU (Melanoma), 5% FCS/5 day incubation, read-out: Test Compound IC50
[4] = MMRU, 5% FCS/3 days, read-out: Test Compound IC50 Value in Cell Lines
[5] = HT-29, HT29 (Colon), 5% FCS/5 day incubation, read-out: Test Compound IC50
[6] = HT-29, HT29, 5% FCS/3 days, read-out: Test Compound IC50 Value in Cell Lines
[7] = HEPG2 (Hepatocel), 5% FCS/5 day incubation, read-out: Test Compound IC50
[8] = HEPG2, 5% FCS/3 days, read-out: Test Compound IC50 Value in Cell Lines
[9] = A549 (Lung), 5% FCS/5 day incubation, read-out: Test Compound IC50
[10] = MCF7 (Breast), 5% FCS/5 day incubation, read-out: Test Compound IC50
[11] = MCF7, 5% FCS/3 days, read-out: Test Compound IC50 Value in Cell Lines
[12] = MDA-MB-23, read-out: Test Compound IC50
[13] = U118MG (CNS), 5% FCS/5 day incubation, read-out: Test Compound IC50
[14] = U118MG, 5% FCS/3 days, read-out: Test Compound IC50 Value in Cell Lines
[15] = Mus musculus, NIH3T3, NIH 3T3 mouse fibroblast cells
[16] = A549, A549 (Lung), 5% FCS/5 day incubation, read-out: Test Compound IC50
[17] = A549, A549, 5% FCS/3 days, read-out: Test Compound IC50 Value in Cell Lines
[18] = MDA-MB-23 (Breast), 5% FCS/5 day incubation, read-out: Test Compound IC50

T1 sequence (O15554 whole entry): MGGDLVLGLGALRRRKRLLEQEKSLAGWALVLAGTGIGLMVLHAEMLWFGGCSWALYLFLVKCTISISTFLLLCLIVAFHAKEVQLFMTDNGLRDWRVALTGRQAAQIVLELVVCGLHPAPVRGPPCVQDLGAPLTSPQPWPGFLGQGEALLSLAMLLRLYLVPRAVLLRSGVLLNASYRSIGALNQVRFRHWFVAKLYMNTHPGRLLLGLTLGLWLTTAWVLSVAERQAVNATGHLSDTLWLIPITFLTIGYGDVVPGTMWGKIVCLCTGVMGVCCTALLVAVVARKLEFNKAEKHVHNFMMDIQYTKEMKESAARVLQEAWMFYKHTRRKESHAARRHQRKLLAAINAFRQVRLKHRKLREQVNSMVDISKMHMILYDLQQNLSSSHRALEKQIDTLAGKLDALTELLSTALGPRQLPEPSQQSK

SMILES | IC50 (DU-145) | IC50 (MMRU; [3]) | IC50 (MMRU; [4]) | IC50 (HCT-15) | IC50 (HT29; [5]) | IC50 (HT29; [6]) | IC50 (L929) | IC50 (CaSki) | IC50 (HeLa) | IC50 (HEPG2; [7]) | IC50 (SK-MEL-28) | IC50 (GM) | IC50 (HTB174) | IC50 (MCF7; [10]) | IC50 (HUVEC) | IC50 (U118MG; [13]) | IC50 (ACHN) | inhibition at 10 µM [2] | IC50 [1, 15] | IC50 [2] | other results
O=C(c1ccc([N+](=O)[O-])cc1)N1Cc2ccccc2C(c2ccccc2Cl)c2ccccc21 (centres unmarked) [Compound 28, N-(4′-nitrobenzoyl)-11-(2′-chlorophenyl)-5,6-dihydro-11H-dibenz[b,e]azepine] | 900 nM | 200 nM | < 1250 nM | 400 nM | 300 nM | < 1250 nM | 600 nM | 500 nM | 300 nM | 300 nM | 400 nM | 900 nM | 100 nM | 600 nM | 700 nM | 500 nM | 700 nM | 0% |  |  | Mitogenic Assay Inhibition ([1]; 10 µM compound, NIH 3T3 mouse fibroblast cells): 99.0%; IC50 ([1]; NIH3T3, NIH 3T3 mouse fibroblast cells): 40 to 500 nM; IC50 (SK-OV-3): > 1000 nM; IC50 (HEPG2; [8]): < 1250 nM; IC50 (A549; [9]): 800 nM; IC50 (A549; A549, 5% FCS/3 days, read-out: Test Compound IC50 Value in Cell Lines): 1800 nM; IC50 (MCF7; [11]): 2100 nM; IC50 (MDA-MB-23; [12]): 500 nM; IC50 (3T3): > 1000 nM; IC50 (U118MG; [14]): 1300 nM
COc1cc([C@@H]2c3cc4c(cc3[C@@H](O[C@@H]3O[C@@H]5CO[C@@H](C)O[C@H]5[C@H](O)[C@H]3O)[C@H]3COC(=O)[C@H]23)OCO4)cc(OC)c1O [VP-16, Etoposide, reference compound] | < 1250 nM | < 1250 nM |  | 1300 nM | < 1250 nM |  | < 1250 nM | 1800 nM | < 1250 nM | < 1250 nM | < 1250 nM | 1400 nM | < 1250 nM | < 1250 nM | < 1250 nM | 2200 nM | < 1250 nM |  |  |  | IC50 (MMRU; MMRU, 2% FCS/3 days, read-out: Test Compound IC50 Value in Cell Lines): < 2500 nM; IC50 (HT29; HT-29, HT29, 2% FCS/3 days, read-out: Test Compound IC50 Value in Cell Lines): 20000 nM; IC50 (A549; [9]): < 1250 nM; IC50 (A549; A549, 2% FCS/3 days, read-out: Test Compound IC50 Value in Cell Lines): 2300 nM; IC50 (MCF7; MCF7, 2% FCS/3 days, read-out: Test Compound IC50 Value in Cell Lines): < 2500 nM; IC50 (MDA-MB-23; [12]): < 1250 nM
COc1ccc(C(=O)N2Cc3ccccc3C(c3ccccc3Cl)c3ccccc32)cc1 (centres unmarked) [Compound 27] | > 1000 nM | 200 nM | < 1250 nM | 400 nM | 400 nM | < 1250 nM | > 1000 nM | 900 nM | 200 nM | 400 nM | 700 nM | > 1000 nM | 300 nM | 500 nM | > 1000 nM | 400 nM | > 1000 nM | 3% | 2200 nM | > 10000 nM | IC50 (SK-OV-3): > 1000 nM; IC50 (HEPG2; [8]): < 1250 nM; IC50 (A549; [16]): 1100 nM; IC50 (A549; [17]): < 1250 nM; IC50 (MCF7; [11]): < 1250 nM; IC50 (MDA-MB-23; [18]): > 1000 nM; IC50 (3T3): > 1000 nM; IC50 (U118MG; [14]): 1900 nM
COc1ccc2c(c1)CN(C(=O)c1ccc([N+](=O)[O-])cc1)c1ccc(Cl)cc1C2c1ccccc1Cl (centres unmarked) [Compound 30] | > 1000 nM | 500 nM | < 1250 nM | 500 nM | 600 nM | < 1250 nM | > 1000 nM | 700 nM | 500 nM | 900 nM | 600 nM | > 1000 nM | 500 nM | 1300 nM | > 1000 nM | 800 nM | > 1000 nM | 14.6% | 600 nM | > 10000 nM | IC50 (SK-OV-3): > 1000 nM; IC50 (HEPG2; [8]): < 1250 nM; IC50 (A549; [16]): 1500 nM; IC50 (A549; [17]): 1700 nM; IC50 (MCF7; [11]): 1600 nM; IC50 (MDA-MB-23; [18]): 900 nM; IC50 (3T3): > 1000 nM; IC50 (U118MG; [14]): < 1250 nM
COc1cccc2c1C(c1ccccc1Cl)c1cc(Cl)ccc1N(C(=O)c1ccc([N+](=O)[O-])cc1)C2 (centres unmarked) [Compound 31] | 900 nM | 200 nM | < 1250 nM | 300 nM | 200 nM | < 1250 nM | 900 nM | 500 nM | 200 nM | 400 nM | 300 nM | > 1000 nM | 200 nM | 700 nM | 800 nM | 400 nM | 800 nM | 12.3% | 400 nM | > 10000 nM | IC50 (SK-OV-3): 600 nM; IC50 (HEPG2; [8]): < 1250 nM; IC50 (A549; [16]): 600 nM; IC50 (A549; [17]): < 1250 nM; IC50 (MCF7; [11]): < 1250 nM; IC50 (MDA-MB-23; [18]): 400 nM; IC50 (3T3): > 1000 nM; IC50 (U118MG; [14]): < 1250 nM
O=C(c1ccc([N+](=O)[O-])cc1)N1Cc2ccccc2C(c2ccccc2)c2ccccc21 (centres unmarked) [Compound 20] | > 1000 nM | 500 nM |  | 900 nM | 700 nM |  | 900 nM | 900 nM | 600 nM | 900 nM | 900 nM | > 1000 nM | 700 nM | > 1000 nM | > 1000 nM | 900 nM | > 1000 nM | 13.6% | 1700 nM | > 10000 nM | IC50 (SK-OV-3): > 1000 nM; IC50 (A549; [16]): > 1000 nM; IC50 (MDA-MB-23; [18]): > 1000 nM; IC50 (3T3): > 1000 nM
O=C(Oc1ccccc1)N1Cc2ccccc2C(c2ccccc2Cl)c2ccccc21 (centres unmarked) [Compound 26, N-phenoxycarbonyl-11-(2′-chlorophenyl)-5,6-dihydro-11H-dibenz[b,e]azepine] |  |  | 4900 nM |  |  | 7200 nM |  |  |  |  |  |  |  |  |  |  |  | 0.8% | 40 to 900 nM | > 10000 nM | IC50 (HEPG2; [8]): 5400 nM; IC50 (A549; [17]): 7000 nM; melting point: 95 to 99 °C; IC50 (MCF7; [11]): 5900 nM; IC50 (U118MG; [14]): 5700 nM
O=C(Oc1ccccc1)N1Cc2ccccc2C(c2ccccc2)c2ccccc21 (centres unmarked) [Compound 14, N-phenoxycarbonyl-11-phenyl-5,6-dihydro-11H-dibenz[b,e]azepine] |  |  |  |  |  |  |  |  |  |  |  |  |  |  |  |  |  | 14.8% | 40 nM | > 10000 nM | IC50 (MMRU; MMRU, 5% FCS/2 days, read-out: Test Compound IC50 Value in Cell Lines): > 10000 nM; IC50 (HT29; HT-29, HT29, 5% FCS/2 days, read-out: Test Compound IC50 Value in Cell Lines): 10000 nM; IC50 (A549; A549, A549, 5% FCS/2 days, read-out: Test Compound IC50 Value in Cell Lines): > 10000 nM; melting point: 155 to 165 °C
COC(=O)N1Cc2ccccc2C(c2ccccc2Cl)c2ccccc21 (centres unmarked) [Compound 9, N-methoxycarbonyl-11-(2′-chlorophenyl)-5,6-dihydro-11H-dibenz[b,e]azepine] |  |  |  |  |  |  |  |  |  |  |  |  |  |  |  |  |  | 97.3% | 2100 nM | 85 to 93 nM | melting point: 159 to 161 °C

— US20030134842A1, “METHODS FOR THE TREATMENT OR PREVENTION OF INFLAMMATORY DISEASES CHARACTERIZED BY ABNORMAL CELL PROLIFERATION” (priority 1997, published 2003)
